Laboratory results reported in article PMC7366380, “Discovery of a Potent and Selective Covalent Inhibitor and Activity-Based Probe for the Deubiquitylating Enzyme UCHL1, with Antifibrotic Activity” (Journal of the American Chemical Society, 2020).

Key:
20 DUBs = assay: Biochemical DUB selectivity profiling (FP and FI assays), whole panel
USP16 = USP16 (Homo sapiens, UniProt Q9Y5T5); assay: biochemical
UCHL1 [1] = target: T1, UCHL1 (Homo sapiens, UniProt P09936); assay: Competitive ABPP against ABP 2 in HEK293 cells, in-gel fluorescence and pulldown/UCHL1 immunoblot; assay type: cell-based; design: rapidly targets endogenous UCHL1 in cells; endogenous in cells; host or cells: HEK293; conditions: HEK293, compound 1 h, then 2 (20 nM) 10 min
T1 sequence (P09936 1-223): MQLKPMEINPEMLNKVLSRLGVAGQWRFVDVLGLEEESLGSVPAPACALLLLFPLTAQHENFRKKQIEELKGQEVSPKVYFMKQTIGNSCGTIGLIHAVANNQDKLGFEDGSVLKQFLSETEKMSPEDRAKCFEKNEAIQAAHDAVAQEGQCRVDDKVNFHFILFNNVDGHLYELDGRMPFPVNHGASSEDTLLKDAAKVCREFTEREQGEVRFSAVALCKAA

UCHL1 [2] = target: T1, UCHL1; assay: Reversible inhibition (jump dilution) assay with Ub-AMC; assay type: biochemical; design: rapidly targets endogenous UCHL1 in cells; endogenous in cells; host or cells: HEK293; conditions: UCHL1 300 nM, compound 400 nM, 30 min, 100x dilution
Protocol: Figure S2. UCHL1 kinetics
(a) Kinetic analysis of UCHL1 (3 nM)-catalyzed cleavage of varied concentrations of Ub-AMC.
(b) Non-linear fit of Michaelis –Menten equation to initial reaction velocities versus Ub-AMC […]
(c) Apparent rate of inhibition (ka) of compound 1 and 2 at varying concentrations. Ub-AMC (130 nM) fluorescence intensity was measured in the presence of UCHL1 (3 nM). The apparent rate constant for inhibition, ka/I was determined by linear regression, giving the absolute value of the rate constant kobs/I values for […]
13000) M-1s-1, respectively. […]
intensity read immediately for 1 h. […]
The excess ligand was removed by washing with buffer D in an Amicon® Ultra MWCO 10 kDa centrifugation spin filter three times. The protein-adducts were desalted using 3× SDB-XC polystyrene-divinylbenzene copolymer extraction disks, following published methods.5 Samples were eluted with 50% (v/v) MeCN 0.5% (v/v) formic acid in LC-MS grade water and analyzed by LC-ESI (ACQUITY UPLC H-Class PLUS instrument (Waters)) using an ACQUITY UPLC BEH C4 column (Waters) coupled with Waters LCT Premier MS detector. […]
(§1) The MS data was analyzed by PEAKS Studio 8.5 (Bioinformatics Solutions Inc.). […]
(§2) Homogeneous time resolved fluorescence (HTRF) assay […]
(§3) BME) and incubated for 30 min at room temperature. […] The plates were sealed and incubated overnight at 4 °C then read using a PHERAstar (BMG), and the Delta F calculated: […]

UCHL1 [3] = target: T1, UCHL1; assay: UCHL1 covalent adduct determination by LC-ESI-MS; assay type: binding; design: (residues 1-223, Uniprot P09936); GST (N, cleaved yes); made in house; host or cells: E. coli Rosetta 2(DE3), pGEX-6P-1; conditions: UCHL1 5 μM, compound 13 μM, 60 min
Protocol: values were plotted against compound concentration to afford the apparent second order rate constant for inhibition, ka/I. The absolute value of the second order rate constant kobs/I was […]
Reversible inhibition assay: Jump dilution assays were performed by incubating UCHL1 […]
negative controls (iodoacetamide (IAA) 10 mM) for 30 min at room temperature. The reaction […]
intensity read immediately for 1 h.
UCHL1 covalent adduct determination […]
pH 7.5) was incubated with compound 1, 2 (2.5 equiv.) or DMSO for 1 h at room temperature.
The excess ligand was removed by washing with buffer D in an Amicon® Ultra MWCO 10 kDa centrifugation spin filter three times. The protein-adducts were desalted using 3× SDB-XC polystyrene-divinylbenzene copolymer extraction disks, following published methods.5 Samples were eluted with 50% (v/v) MeCN 0.5% (v/v) formic acid in LC-MS grade water and analyzed by LC-ESI (ACQUITY UPLC H-Class PLUS instrument (Waters)) using an ACQUITY UPLC BEH C4 column (Waters) coupled with Waters LCT Premier MS detector.
UCHL1 covalent adduct site identification […]
as §1, §2, §3

USP16, sequence (Q9Y5T5 whole entry, species assumed): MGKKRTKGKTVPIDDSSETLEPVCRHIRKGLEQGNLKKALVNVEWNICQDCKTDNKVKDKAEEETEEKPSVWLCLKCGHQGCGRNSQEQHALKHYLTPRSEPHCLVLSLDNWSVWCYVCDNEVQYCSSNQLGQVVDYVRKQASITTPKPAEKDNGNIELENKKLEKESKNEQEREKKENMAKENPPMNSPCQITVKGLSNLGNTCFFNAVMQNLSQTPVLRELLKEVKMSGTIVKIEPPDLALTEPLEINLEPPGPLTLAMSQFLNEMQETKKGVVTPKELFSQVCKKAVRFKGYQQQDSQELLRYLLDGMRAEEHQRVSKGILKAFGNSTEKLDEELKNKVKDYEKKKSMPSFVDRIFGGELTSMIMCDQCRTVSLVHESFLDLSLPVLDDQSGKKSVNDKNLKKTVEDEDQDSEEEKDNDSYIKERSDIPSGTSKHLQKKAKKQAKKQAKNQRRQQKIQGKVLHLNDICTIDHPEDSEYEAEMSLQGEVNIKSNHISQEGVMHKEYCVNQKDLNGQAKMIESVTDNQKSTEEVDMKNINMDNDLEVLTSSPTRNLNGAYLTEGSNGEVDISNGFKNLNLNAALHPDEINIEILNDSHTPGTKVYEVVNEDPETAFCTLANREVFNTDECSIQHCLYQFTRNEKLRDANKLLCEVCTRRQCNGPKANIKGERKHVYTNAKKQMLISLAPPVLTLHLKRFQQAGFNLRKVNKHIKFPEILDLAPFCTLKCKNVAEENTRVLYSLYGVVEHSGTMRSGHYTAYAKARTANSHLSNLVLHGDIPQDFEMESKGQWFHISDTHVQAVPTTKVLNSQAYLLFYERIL

Row | competition for UCHL1 labeling by ABP 2 (immunoblot) (UCHL1 [1]) | reversibility of inhibition after dilution (UCHL1 [2]) | covalent modification of UCHL1 by LC-ESI-MS (UCHL1 [3]) | Compound | activity/selectivity in cross-screening against 20 DUBs (20 DUBs) | IC50 (USP16)
1 | dose-dependent UCHL1 labeling reduction | slowly reversible | single modification | N#CN1CCC[C@H]1C(=O)N1CCc2c(-c3c[nH]c4ncccc34)cccc21 [Compound 1] | exquisite selectivity | > 10 µM
2 | – | slowly reversible | single modification | C#Cc1cnc2[nH]cc(-c3cccc4c3CCN4C(=O)[C@@H]3CCCN3C#N)c2c1 [Compound 2] | – | –
3 | – | – | – | CC(=O)O/N=C1\C(=O)N(Cc2cc(Cl)ccc2Cl)c2ccc(Cl)cc21 [LDN-57444, reference compound] | – | > 10 µM
4 | no competition | – | – | N#CN1CCC[C@@H]1C(=O)N1CCc2c(-c3c[nH]c4ncccc34)cccc21 [Compound 3] | inactive | –
